How the values were obtained:
human fibroblasts = experiment: Production of β-endorphin in a culture of human fibroblasts (ELISA); type: cell-based; conditions: 0.038-0.600 μg/mL, 48 hr incubation, FIG. 2
Description: To carry out the experiments a cell line (pure/isolated culture) of human fibroblasts, adult age (mature), 6a passage was used.
The cells were cultured on appropriate culture plates (24 well) in specific medium culture, containing supplements required for cell maintenance and proliferation. For that purpose, 1×10^5 cells/well were seeded, confluence being reached after a 48 hour incubation, in a wet stove, 5% CO2, 37° C.
Subsequent to confluence (approximately 80% of the total area), the samples to be assessed were added, at the appropriate concentrations and previously established, according to table 1, always keeping a group as CONTROL (with no treatment), for comparative purposes in assessing effectiveness. The samples were previously diluted in proper culture medium.
(§1) After 48 hour incubation (wet stove, 5% CO2, 37° C.) with the samples, the supernatant of cell cultures were collected for assessing the beta-endorphin release. The possible citotoxicity of the compound was also assessed and taken into account. Assessment was qualitative only, by analysis of morphology and cell characteristics.
Quantification of the production of beta-endorphin by the cells in culture was carried out by the immunoenzymatic method ELISA (Enzyme-Linked Immunosorbent Assay), using a kit appropriate for determining beta-endorphin in biological samples. The samples were assessed in quadruplicate.

human keratinocytes = experiment: Production of β-endorphin in a culture of human keratinocytes (ELISA); type: cell-based; conditions: 0.038-0.600 μg/mL, 48 hr incubation, FIG. 3
Description: To carry out the experiments a cell line (pure/isolated culture) of human keranoticytes, adult age (mature), 7th passage was used.
The cells were cultured on appropriate culture plates (24 well) in specific medium culture, containing supplements required for cell maintenance and proliferation. For that purpose, 1×10^5 cells/well were seeded, confluence being reached after 72 hour incubation, in a wet stove, 5% CO2, 37° C.
Subsequent to confluence (approximately 80% of the total area), the samples to be assessed were added, at the appropriate concentrations and previously established, according to table 2, always keeping a group as CONTROL (with no treatment), for comparative purposes in assessing effectiveness. The samples were previously diluted in proper culture medium.
as §1
Quantification of the production of beta-endorphin by the cells in culture was carried out by the immunoenzymatic method ELISA (Enzyme-Linked immunosorbent Assay), using a kit appropriate for determining de beta-endorphin in biological samples. The samples were assessed in quadruplicate.

bovine fosfodiesterase = conditions: in vitro bovine fosfodiesterase; theobromine versus caffeine; cited from earlier work
[1] = system: UVA light-induced wrinkles; conditions: topical; 10 mM; UVA 13.0 J/cm^2; 15-week study; cited from earlier work
adipocytes = conditions: ex vivo adipocytes; caffeine versus theobromine; lypolisis rate by intracelullar glycerol; cited from earlier work

Compound: Cn1c(=O)c2c(ncn2C)n(C)c1=O [caffeine]
- production of β-endorphin compared with TC150905MX at the same concentration (human fibroblasts): higher production of β-endorphin
- production of β-endorphin compared with TC150905MX at the same concentration (human keratinocytes): higher production of β-endorphin
- power in the ability of increasing AMPc (fosfodiesterase inhibition) (bovine fosfodiesterase): identical
- prevention of UVA light-induced wrinkles [1]: effective
- power on noradrenaline-induced lypolisis (adipocytes): equivalent power

Compound: Cn1cnc2c1c(=O)[nH]c(=O)n2C [theobromine]
- power in the ability of increasing AMPc (fosfodiesterase inhibition) (bovine fosfodiesterase): identical

— patent publication US9198848B2, “Process for obtaining extracts containing methylxanthine derivatives from cakes of plants of the genus Theobroma, as well as composition and use of said extract” (Natura Cosmeticos S.A., priority 2008, dated 2015)
